Experimental data taken from patent US9062078B2, “Substituted 7-azabicyles and their use as orexin receptor modulators” (priority 2013, dated 2015).
Like-named read-outs stand apart in the source and are kept apart here.

Assays:
human orexin 2 receptor = human orexin 2 receptor (Homo sapiens (Human), UniProt O43614); test: Human orexin 2 receptor radioligand binding (competitive, [3H]-EMPA, HEK293 cell preparations)
human orexin 1 receptor = human orexin 1 receptor (Homo sapiens (Human), UniProt O43613); test: Human orexin 1 receptor radioligand binding (competitive, [3H]-SB674042, CHO cell preparations)
[1] = human orexin 2 receptor, [3H]-EMPA competition binding, read-out: hOX2 Ki (nm)
[2] = human orexin 1 receptor, [3H]-SB674042 competition binding, read-out: hOX1 Ki (nm)

Sequence of human orexin 1 receptor (O43613 whole entry): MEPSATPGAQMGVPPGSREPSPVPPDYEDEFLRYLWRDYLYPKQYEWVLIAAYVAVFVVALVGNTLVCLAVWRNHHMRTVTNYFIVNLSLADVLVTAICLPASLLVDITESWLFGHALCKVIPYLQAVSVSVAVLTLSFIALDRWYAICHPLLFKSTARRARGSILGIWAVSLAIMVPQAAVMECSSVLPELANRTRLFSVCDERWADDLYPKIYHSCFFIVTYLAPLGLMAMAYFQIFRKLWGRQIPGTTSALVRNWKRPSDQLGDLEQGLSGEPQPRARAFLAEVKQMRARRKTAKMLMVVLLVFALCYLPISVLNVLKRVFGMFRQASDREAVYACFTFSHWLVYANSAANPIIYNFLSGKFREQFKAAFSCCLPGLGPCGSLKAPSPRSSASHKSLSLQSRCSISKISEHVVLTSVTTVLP
Sequence of human orexin 2 receptor (O43614 whole entry): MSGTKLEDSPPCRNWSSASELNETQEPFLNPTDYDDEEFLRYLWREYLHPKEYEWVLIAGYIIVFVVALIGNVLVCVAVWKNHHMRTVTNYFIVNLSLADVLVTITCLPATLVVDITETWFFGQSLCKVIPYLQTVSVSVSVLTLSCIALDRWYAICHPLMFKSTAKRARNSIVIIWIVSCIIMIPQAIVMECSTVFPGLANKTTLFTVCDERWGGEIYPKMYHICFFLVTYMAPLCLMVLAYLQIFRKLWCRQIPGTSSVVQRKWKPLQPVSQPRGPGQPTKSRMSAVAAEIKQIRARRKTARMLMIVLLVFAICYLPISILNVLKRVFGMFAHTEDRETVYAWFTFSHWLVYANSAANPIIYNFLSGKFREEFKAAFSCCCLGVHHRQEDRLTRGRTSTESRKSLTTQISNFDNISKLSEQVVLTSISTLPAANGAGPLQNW

SMILES | Ki (human orexin 2 receptor; [1]) [nM] | Ki (human orexin 1 receptor; [2]) [nM] | Ki (human orexin 1 receptor; hOX1 Ki (nm)) [nM] | Ki (human orexin 2 receptor; hOX2 Ki (nm)) [nM] | Ki (human orexin 1 receptor; read-out: hOX1 Ki (nm)) [nM]
Cc1ccc(-n2nccn2)c(C(=O)N2C3CCC2C(COc2cnc4ccccc4n2)C3)c1 (racemic) [Example 36, (±)-(5-methyl-2-(2H-1,2,3-triazol-2-yl)phenyl)(2-((quinoxalin-2-yloxy)methyl)-7-azabicyclo[2.2.1]heptan-7-yl)methanone] | 107 | 70 |  |  | 
O=C(c1cccc(F)c1-n1nccn1)N1C2CCC1C(COc1cnc3ccccc3n1)C2 (racemic) [Example 150, (±)-(3-fluoro-2-(2H-1,2,3-triazol-2-yl)phenyl)(2-((quinoxalin-2-yloxy)methyl)-7-azabicyclo[2.2.1]heptan-7-yl)methanone] | 990 | 180 |  |  | 
Cc1cc(C)nc(OCC2CC3CCC2N3C(=O)c2ccc(C)nc2-n2nccn2)n1 (racemic) [Example 151, (±)-(2-(((4,6-dimethylpyrimidin-2-yl)oxy)methyl)-7-azabicyclo[2.2.1]heptan-7-yl)(6-methyl-2-(2H-1,2,3-triazol-2-yl)pyridin-3-yl)methanone] | ≥ 10000 | ≥ 10000 |  |  | 
Cc1ccc(C(=O)N2C3CCC2C(COc2ccccn2)C3)c(-n2nccn2)n1 (racemic) [Example 128, (±)-(6-methyl-2-(2H-1,2,3-triazol-2-yl)pyridin-3-yl)(2-((pyridin-2-yloxy)methyl)-7-azabicyclo[2.2.1]heptan-7-yl)methanone] | ≥ 10000 | 5700 |  |  | 
O=C(c1ccc(F)cc1-n1nccn1)N1[C@@H]2CC[C@H]1[C@H](Nc1cnc(C(F)(F)F)cn1)C2 [Example 257, (4-fluoro-2-(2H-1,2,3-triazol-2-yl)phenyl)((1S,2R,4R)-2-((5-(trifluoromethyl)pyrazin-2-yl)amino)-7-azabicyclo[2.2.1]heptan-7-yl)methanone] | 3200 | 102 |  |  | 
Cc1ccc(-n2nccn2)c(C(=O)N2C3CCC2C(COc2cc(C)nc(C(F)(F)F)n2)C3)c1 (racemic) [Example 180, (±)-(5-methyl-2-(2H-1,2,3-triazol-2-yl)phenyl)(2-(((6-methyl-2-(trifluoromethyl)pyrimidin-4-yl)oxy)methyl)-7-azabicyclo[2.2.1]heptan-7-yl)methanone] | 32 |  | 33 |  | 
O=C(c1cccc2cccnc12)N1C2CCC1C(COc1ccc(F)cn1)C2 (racemic) [Example 23, (±)-2-(((5-fluoropyridin-2-yl)oxy)methyl)-7-azabicyclo[2.2.1]heptan-7-yl)(quinolin-8-yl)methanone] | 1500 | 322 |  |  | 
O=C(c1c(F)cccc1-c1ncccn1)N1C2CCC1C(COc1ccc(F)cn1)C2 (racemic) [Example 31, (±)-(2-fluoro-6-(pyrimidin-2-yl)phenyl)(2-(((5-fluoropyridin-2-yl)oxy)methyl)-7-azabicyclo[2.2.1]heptan-7-yl)methanone] | 122 | 33 |  |  | 
Cc1ccc(-c2ncccn2)c(C(=O)N2C3CCC2C(COc2cnc4ccccc4n2)C3)c1 (racemic) [Example 38, (±)-(5-methyl-2-(pyrimidin-2-yl)phenyl)(2-((quinoxalin-2-yloxy)methyl)-7-azabicyclo[2.2.1]heptan-7-yl)methanone] | 383 |  | 120 |  | 
O=C(c1cc(F)ccc1-n1nccn1)N1C2CCC1C(CNc1ccccn1)C2 (racemic) [Example 169, (±)-(5-fluoro-2-(2H-1,2,3-triazol-2-yl)phenyl)(2-((pyridin-2-ylamino)methyl)-7-azabicyclo[2.2.1]heptan-7-yl)methanone] | 2530 | 9000 |  |  | 
Cc1ccc(-c2ncccn2)c(C(=O)N2C3CCC2C(COc2nc(C)cc(C)n2)C3)c1 (racemic) [Example 45, (±)-(2-(((4,6-dimethylpyrimidin-2-yl)oxy)methyl)-7-azabicyclo[2.2.1]heptan-7-yl)(5-methyl-2-(pyrimidin-2-yl)phenyl)methanone] | 59 | 79 |  |  | 
Cc1ccc(-n2nccn2)c(C(=O)N2C3CCC2C(COc2cccc(C(F)(F)F)n2)C3)c1 (racemic) [Example 16, (±)-(5-methyl-2-(2H-1,2,3-triazol-2-yl)phenyl)(2-(((6-(trifluoromethyl)pyridin-2-yl)oxy)methyl)-7-azabicyclo[2.2.1]heptan-7-yl)methanone] | 42 | 20 |  |  | 
Cc1cccc(OCC2CC3CCC2N3C(=O)c2ccc(C)nc2-n2ccnn2)n1 (racemic) [Example 140, (±)-(6-methyl-2-(1H-1,2,3-triazol-1-yl)pyridin-3-yl)(2-(((6-methylpyridin-2-yl)oxy)methyl)-7-azabicyclo[2.2.1]heptan-7-yl)methanone] | 2300 | 3100 |  |  | 
O=C(c1ccccc1-n1cccn1)N1C2CCC1C(COc1ccc(F)cn1)C2 (racemic) [Example 26, (±)-2-(1H-pyrazol-1-yl)phenyl)(2-(((5-fluoropyridin-2-yl)oxy)methyl)-7-azabicyclo[2.2.1]heptan-7-yl)methanone] | 394 | 117 |  |  | 
Cc1cc(C)nc(NCC2CC3CCC2N3C(=O)c2cc(F)ccc2-n2nccn2)n1 (racemic) [Example 170, (±)-(2-(((4,6-dimethylpyrimidin-2-yl)amino)methyl)-7-azabicyclo[2.2.1]heptan-7-yl)(5-fluoro-2-(2H-1,2,3-triazol-2-yl)phenyl)methanone] |  | 1960 |  | 512 | 
O=C(c1cc(F)ccc1-n1nccn1)N1C2CCC1C(COc1cnc3ccccc3n1)C2 (racemic) [Example 37, (±)-(5-fluoro-2-(2H-1,2,3-triazol-2-yl)phenyl)(2-((quinoxalin-2-yloxy)methyl)-7-azabicyclo[2.2.1]heptan-7-yl)methanone] | 487 | 300 |  |  | 
Cc1noc(-c2c(F)cccc2C(=O)N2[C@@H]3CC[C@H]2[C@H](Nc2cnc(C(F)(F)F)cn2)C3)n1 [Example 254, (3-fluoro-2-(3-methyl-1,2,4-oxadiazol-5-yl)phenyl)((1S,2R,4R)-2-((5-(trifluoromethyl)pyrazin-2-yl)amino)-7-azabicyclo[2.2.1]heptan-7-yl)methanone] | 377 |  |  |  | 20
Cc1ccc(C(=O)N2C3CCC2C(COc2cnc4ccccc4n2)C3)c(-n2ccnn2)n1 (racemic) [Example 148, (±)-(6-methyl-2-(1H-1,2,3-triazol-1-yl)pyridin-3-yl)(2-((quinoxalin-2-yloxy)methyl)-7-azabicyclo[2.2.1]heptan-7-yl)methanone] | 3200 | 6300 |  |  | 
Cc1cc(C)nc(NC2CC3CCC2N3C(=O)c2c(F)cccc2-n2nccn2)n1 (racemic) [Example 198, (±)-(2-((4,6-dimethylpyrimidin-2-yl)amino)-7-azabicyclo[2.2.1]heptan-7-yl)(2-fluoro-6-(2H-1,2,3-triazol-2-yl)phenyl)methanone] | 704 |  | 1410 |  | 
CCOc1ccc2ccccc2c1C(=O)N1C2CCC1C(COc1ccc(F)cn1)C2 (racemic) [Example 28, (±)-(2-ethoxynaphthalen-1-yl)(2-(((5-fluoropyridin-2-yl)oxy)methyl)-7-azabicyclo[2.2.1]heptan-7-yl)methanone] | 11 | 14 |  |  | 
Cc1ccc(C(=O)N2C3CCC2C(COc2cccc(C(F)(F)F)n2)C3)c(-n2ccnn2)n1 (racemic) [Example 144, (±)-(6-methyl-2-(1H-1,2,3-triazol-1-yl)pyridin-3-yl)(2-(((6-(trifluoromethyl)pyridin-2-yl)oxy)methyl)-7-azabicyclo[2.2.1]heptan-7-yl)methanone] |  | 3600 |  | 3200 | 
O=C(c1ccccc1-n1nccn1)N1C2CCC1C(COc1cnc3ccccc3n1)C2 (racemic) [Example 34, (±)-(2-(2H-1,2,3-triazol-2-yl)phenyl)(2-((quinoxalin-2-yloxy)methyl)-7-azabicyclo[2.2.1]heptan-7-yl)methanone] | 467 | 60 |  |  | 
Cc1nc(C(=O)N2C3CCC2C(COc2ccc(F)cn2)C3)c(-c2ccccc2F)s1 (racemic) [Example 29, (±)-(5-(2-fluorophenyl)-2-methylthiazol-4-yl)(2-(((5-fluoropyridin-2-yl)oxy)methyl)-7-azabicyclo[2.2.1]heptan-7-yl)methanone] | 60 | 11 |  |  | 
Cc1ccc(C(=O)N2C3CCC2C(COc2ccccn2)C3)c(-n2ccnn2)n1 (racemic) [Example 130, (±)-(6-methyl-2-(1H-1,2,3-triazol-1-yl)pyridin-3-yl)(2-((pyridin-2-yloxy)methyl)-7-azabicyclo[2.2.1]heptan-7-yl)methanone] | 7200 | 3700 |  |  | 
Cc1cc(C)nc(OCC2CC3CCC2N3C(=O)c2ccccc2-c2cccs2)n1 (racemic) [Example 46, (±)-(2-(((4,6-dimethylpyrimidin-2-yl)oxy)methyl)-7-azabicyclo[2.2.1]heptan-7-yl)(2-(thiophen-2-yl)phenyl)methanone] | 10 | 82 |  |  | 
O=C(c1occc1-c1ccccc1)N1C2CCC1C(COc1ccc(F)cn1)C2 (racemic) [Example 27, (±)-2-(((5-fluoropyridin-2-yl)oxy)methyl)-7-azabicyclo[2.2.1]heptan-7-yl)(3-phenylfuran-2-yl)methanone] |  | 677 |  | 380 | 
O=C(c1cccc(F)c1-n1nccn1)N1C2CCC1C(COc1nccc(C(F)(F)F)n1)C2 (racemic) [Example 134, (±)-(3-fluoro-2-(2H-1,2,3-triazol-2-yl)phenyl)(2-(((4-(trifluoromethyl)pyrimidin-2-yl)oxy)methyl)-7-azabicyclo[2.2.1]heptan-7-yl)methanone] |  |  | 1500 | 690 | 
Cc1cc(C)nc(OCC2CC3CCC2N3C(=O)c2ccc(C)nc2-n2ccnn2)n1 (racemic) [Example 152, (±)-(2-(((4,6-dimethylpyrimidin-2-yl)oxy)methyl)-7-azabicyclo[2.2.1]heptan-7-yl)(6-methyl-2-(1H-1,2,3-triazol-1-yl)pyridin-3-yl)methanone] | 5900 | ≥ 10000 |  |  | 
